Source: patent publication US20220363681A1, “OXO SIX-MEMBERED CYCLOPYRIMIDINE COMPOUND, PREPARATION METHOD AND MEDICAL USE THEREOF” (GenFleet Therapeutics (Shanghai) Inc., priority 2019, published 2022)

Legend:
[1] = tested on: A549 cells (Kras G12S mutation); assay: Cell proliferation inhibition experiment, 3D cell model, CellTiter-Glo (A549); format: cell-based, human; conditions: A549, 2% FBS F-12K, 384-well sphere plate, cultured 5 days with compound
Description: (§1) NCI-H358 was a human non-small cell lung cancer cell line with Kras G12C mutation, cultured in 10% FBS RPMI-1640 medium; A549 was a human lung adenocarcinoma cell line with Kras G12S mutation, cultured in 10% FBS F-12K medium. The cells in the logarithmic growth phase was taken, digested with trypsin EDTA, collected and counted, and H358 was adjusted to 1.8E4 cells/ml using 2% FBS RPMI-1640 medium, and A549 was adjusted to 8.9E3 cells/ml using 2% FBS F-12K medium; 800 (45 μl) H358 or 400 (45 μl) A549 cells were seeded in a 384-well sphere plate respectively, cultured overnight to establish a 3D cell model. DMSO was used to prepare 1000× compound 3.16-fold gradient concentration stock solution, and 2% FBS medium was used to dilute 100-fold to 10× compound stock solution. On the second day after cell seeding, 5 μl 10× compound stock solution was added to each cell culture well, the final concentration was 1×, and DMSO content was 0.1%. DMSO was used as the experimental control (control) and 2% FBS medium as the blank control (blank). After the compound and cells were added and cultured for 5 days, 25 μl CellTiter-Glo working solution was added to each well, mixed at 400 rpm and incubated for 30 minutes. After standing 30 minutes at room temperature, 40 μl of the mixture was transfered to a 384-well plate with a non-transparent white bottom, the luminescence chemiluminescence value was read, and the cells proliferation inhibition rate IR (%)=(RLU control-RLU compound)/(RLU control-RLU blank)×100% was calculated, Prism 6 four-parameter method was used to fit the compound's gradient dilution concentration and the corresponding cell proliferation inhibition rate, and the IC50 value was calculated.

[2] = tested on: Kras G12C mutant NCI-H358 cells; assay: Cell proliferation inhibition experiment, 3D cell model, CellTiter-Glo (H358); format: cell-based, human; conditions: NCI-H358, 2% FBS RPMI-1640, 384-well sphere plate, cultured 5 days with compound
Description: as §1

Row | SMILES | IC50 ([1]; Homo sapiens, A549, 120 h) [nM] | IC50 ([2]; Homo sapiens, NCI-H358, 120 h) [nM] | IC50 [1] [nM] | IC50 [2] [nM]
1 | C=CC(=O)N1CCN(c2nc(N3CCN(C)CC3)nc3c(OC4CC4)c(-c4c(C)ccc5[nH]ncc45)c(Cl)cc23)CC1 [Compound Z37] | > 5000 | 51 |  | 
2 | C=CC(=O)N1CCN(c2nc(O[C@@H]3CCN(C)C3)nc3c(OC4CC4)c(-c4c(C)ccc5[nH]ncc45)c(Cl)cc23)CC1 [Compound Z39] | > 5000 | 21 |  | 
3 | C=CC(=O)N1CCN(c2nc(O[C@H]3CCN(C)C3)nc3c(OC4CC4)c(-c4c(C)ccc5[nH]ncc45)c(Cl)cc23)CC1 (single isomer, unassigned) [Compound Z40A] |  |  | > 30000 | 12
4 | C=CC(=O)N1CCN(c2nc(OC[C@@H]3CCCN3C)nc3c(OC4CCC4)c(-c4c(C)ccc5[nH]ncc45)c(Cl)cc23)CC1 [Compound Z8, 1-(4-(6-chloro-8-cyclobutoxy-7-(5-methyl-1H-indazol-4-yl)-2-(((S)-1-methylpyrrolidin-2-yl)methoxy)quinazolinpyridin-4-yl)piperazin-1-yl)prop-2-en-1-one] | > 10000 | 70 |  | 
5 | C=CC(=O)N1CCN(c2nc(OC[C@@H]3CCCN3C)nc3c(OC4CC4)c(-c4c(C)ccc5[nH]nc(F)c45)c(Cl)cc23)CC1 [Compound Z47, 1-(4-(6-chloro-8-cyclopropoxy-7-(3-fluoro-5-methyl-1H-indazol-4-yl)-2-((((S)-1-methylpyrrolidin-2-yl))methoxy)quinazolin-4-yl)piperazin-1-yl)prop-2-en-1-one] | > 5000 | 38 |  | 
6 | C=CC(=O)N1CCN(c2nc(O[C@H]3CCN(C)C3)nc3c(OC4CC4)c(-c4c(C)ccc5[nH]ncc45)c(Cl)cc23)CC1 [Compound Z40] |  |  | > 1000 | 25
7 | C=CC(=O)N1CCN(c2nc(OC3CCN(C)CC3)nc3c(OC4CC4)c(-c4c(C)ccc5[nH]ncc45)c(Cl)cc23)CC1 [Compound Z12, 1-(4-(6-chloro-8-cyclopropoxy-7-(5-methyl-1H-indazol-4-yl)-2-((1-methylpiperidin-4-yl)oxy)quinazolin-4-yl)piperazin-1-yl)prop-2-en-1-one] |  |  | > 10000 | 18
8 | C=CC(=O)N1CCN(c2nc(OC[C@@H]3CCCN3C)nc3c(OC4CC(F)(F)C4)c(-c4c(C)ccc5[nH]ncc45)c(Cl)cc23)C[C@@H]1CC#N [Compound Z6, 2-((2S)-1-acryloyl-4-(6-chloro-8-(3,3-difluorocyclobutoxy)-7-(5-methyl-1H-indazol-4-yl)-2-(((S)-1-methylpyrrolidin-2-yl)methoxy)quinazolin-4-yl)piperazin-2-yl) acetonitrile] | > 5000 | 139 |  | 

Next, values leading:

Row | IC50 ([1]; Homo sapiens, A549, 120 h) [nM] | IC50 ([2]; Homo sapiens, NCI-H358, 120 h) [nM] | IC50 [1] [nM] | IC50 [2] [nM] | SMILES
9 | > 30000 | 83 |  |  | C=CC(=O)N1CCN(c2nc(OC[C@@H]3CCCN3C)nc3c(OC4CC4)c(-c4c(C)ccc5[nH]ncc45)c(OC)cc23)CC1 [Compound Z49, 1-(4-(8-cyclopropoxy-6-methoxy-7-(5-methyl-1H-indazol-4-yl)-2-(((S)-1-methylpyrrolidin-2-yl)methoxy)quinazolin-4-yl)piperazin-1-yl)prop-2-en-1-one]
10 | > 10000 | 50 |  |  | C=CC(=O)N1CCN(c2nc(OC[C@@H]3CCCN3C)nc3c(OC4CC4)c(-c4c(C)ccc5[nH]ncc45)c(OC)cc23)C[C@@H]1CC#N (single isomer, unassigned) [Compound Z50A]
11 |  |  | > 1000 | 6 | C=CC(=O)N1CCN(c2nc(OC[C@@H]3CCCN3C)nc3c(OC4CC4)c(-c4c(C)ccc5[nH]ncc45)c(Cl)cc23)CC1 (single isomer, unassigned) [Compound Z7B]
12 | > 30000 | 18 |  |  | C=CC(=O)N1CCN(c2nc(OC[C@@H]3C[C@H](F)CN3C)nc3c(OC4CC4)c(-c4c(C)ccc5[nH]ncc45)c(Cl)cc23)CC1 [Compound Z45, 1-(4-(6-chloro-8-cyclopropoxy-2-((((2S, 4S)-4-fluoro-1-methylpyrrolidin-2-yl)methoxy)-7]-(5-methyl-1H-indazol-4-yl)quinazolin-4-yl)piperazin-1-yl)prop-2-en-1-one]
13 | > 1000 | 324 |  |  | C=CC(=O)N1CCN(c2nc(OC[C@@H]3CCCN3C)nc3c(OC4CC4)c(-c4c(C)ccc5[nH]ncc45)c(Cl)cc23)[C@H](C)C1 [Compound Z27, 1-((3R)-4-(6-chloro-8-cyclopropoxy-7-(5-methyl-1H-indazol-4-yl)-2-(((S)-1-methylpyrrolidin-2-yl)methoxy)quinazolin-4-yl)-3-methylpiperazin-1-yl)prop-2-en-1-one]
14 | > 30000 | 19 |  |  | C=CC(=O)N1CCN(c2nc(OC[C@@H]3C[C@@H](F)CN3C)nc3c(OC4CC4)c(-c4c(C)ccc5[nH]ncc45)c(Cl)cc23)CC1 [Compound Z38, 1-(4-(6-chloro-8-cyclopropoxy-2-((((2S, 4R)-4-fluoro-1-methylpyrrolidin-2-yl)methoxy)-7]-(5-methyl-1H-indazol-4-yl)quinazolin-4-yl)piperazin-1-yl)prop-2-en-1-one]
15 | > 5000 | 26 |  |  | C=CC(=O)N1CCN(c2nc(OC[C@@H]3CCCN3C)nc3c(OC4CC4)c(-c4c(C)ccc5[nH]ncc45)c(Cl)cc23)C[C@H]1C [Compound Z30, 1-((2R)-4-(6-chloro-8-cyclopropoxy-7-(5-methyl-1H-indazol-4-yl)-2-((((S)-1-methylpyrrolidin-2-yl))methoxy)quinazolin-4-yl)-2-methylpiperazin-1-yl)prop-2-en-1-one]
16 |  |  | > 1000 | 4 | C=CC(=O)N1CCN(c2nc(OC[C@@H]3CCCN3C)nc3c(OC4CC4)c(-c4c(C)ccc5[nH]ncc45)c(Cl)cc23)[C@@H](C)C1 (single isomer, unassigned) [Compound Z28B]
